Experimental data reported in patent publication US20230066049A1, “PEPTIDES USEFUL IN PRESERVATION AND/OR RESTORATION OF FUNCTIONAL PANCREATIC ISLETS AND IN TREATING DIABETES” (THE NATIONAL INSTITUTE FOR BIOTECHNOLOGY IN THE NEGEV LTD., priority 2020, published 2023).
Read-outs that look alike come from different tables or passages of the source.

How the values were obtained:
db/db mice = details: Zhang et al., 2019; cited from earlier work
STZ/HFD-32-fed mice [1] = experiment: NAFLD/diabetes mice model (STZ/HFD-32-fed mice): number and size of Langerhans islets, blood glucose; assay type: in vivo, mouse; details: for Average No. of islets per mouse / Total No. of islets: 14 mg/kg i.v. three times a week
Description: The HFD-32 diet was as described previously (Fujii, M., et al. Med Mol Morphol, 2013. 46(3): p. 141-52; 507.6 kcal/100 g, 56.7% kcal from fat) comprising 5% egg white powder (MM Ingredients, Wimborne, UK), 6.928% lactose (Pharma Grade, Nelson, UK), 15.88% beef fat (contains 80% fat), 5% AIN93G-mineral mixture, 0.002% tertiary butyl hydroquinone and 1.4% AIN93VX-vitamin mix (MP Biomedical, Illkirch, France), 24.5% milk casein (Shaanxi Fuheng Biotechnology, Xi'an, China), 20% safflower oil (high oleic acid content) (Bustan Briut, Galil, Israel), 6.45% sucrose, 0.43% L-cysteine, 5.5% crystalline cellulose (Sigma), 0.36% choline bitartrate and 8.25% maltodextrin (Bulk Powders, Colchester, UK). Control C57BL/6 mice were fed with a standard chow diet (408.4 kcal/100 g, 57% kcal from carbohydrates, 27% kcal from proteins, 16% from fat (V1154-703, S sniff Spezialdaten, Sosset, Germany).
(§1) Male C57BL/6 mice were purchased from Envigo (Jerusalem, Israel). In order to generate the diabetes-based steatosis-NASH mouse model, 2-day-old mice were subjected to a single, low dose subcutaneous injection of streptozotocin (STZ) (200 μg/mouse) and then were fed with the HFD-32 high fat diet starting at the end of week 4. The mice manifested steatosis at 6 weeks and NASH at 8 weeks. These mice are designated herein interchangeably as “NAFLD/diabetes mice model” and “STZ/HFD-32-fed mice”. Mice affected with steatosis were treated with R-Tf-D-LP4 (14 mg/kg) from week 6 to week 8, and mice affected with NASH from week 8 to week 10. The R-Tf-D-LP4 peptide at 14 mg/kg (in 100 μl of Hank's balanced salts solution (HBSS) without calcium) was administered intravenously three times a week. Control groups were intravenously injected with 100 μl of 0.8% DMSO in HBSS buffer from week 6 to week 8 for steatosis affected mice and from week 8 to week […] for NASH affected mice. The final blood DMSO concentration was 0.07% in control and peptide-treated mice.
At the end of the experiment, the mice were sacrificed by CO2 inhalation and the livers and pancreases were removed. Livers were photographed and the lipid content was assessed. For this purpose, part of the liver was frozen in OCT (optimal cutting temperature) compound, embedded, sectioned, and stained with oil red O. The pancreases were fixed with formaldehyde, embedded in paraffin, sectioned, and subjected to immunohistochemical (IHC) or immunefluorescent (IF) staining, as described below.
(§2) Immunohistochemistry (IHC) and immunofluorescence (IF) staining was performed on 5 μm-thick formalin-fixed and paraffin-embedded pancreatic tissue sections. Sections were deparaffinized (5 minutes in xylene, 3 times), followed by rehydration with a graded ethanol series (50%, 70%, 95%, 100%). Antigen retrieval was performed by 20 min incubation in preheated 0.01 M citrate buffer, pH 6.0 at 95-98° C. Sections were washed with PBS pH 7.4 containing 0.1% Triton-X100 (PBST), incubated in 10% NGS and 1% BSA for 2 h, followed by overnight incubation at 4° C. with primary antibodies (see Table 1). Sections were then washed with PBST. For IHC staining, endogenous peroxidase activity was blocked by incubating the sections in 3% H2O2 for 15 min. Following washing with PBST, sections were incubated for 2 h with the appropriate secondary HRP-conjugated antibodies. Sections were washed with PBST and peroxidase activity was visualized by incubating with DAB. After rinsing in water, the sections were counter-stained with hematoxylin, dehydrated with a graded ethanol series (50-100%), incubated in xylene, and mounted with mounting medium. Finally, images from the sections were collected using an automatic digital slide scanner (Panoramic
MIDI II, 3DHISTECH) with the same light intensity and exposure time. Non-specific control experiments were carried out using the same protocols but omitting incubation with primary antibodies. For IF staining, sections were incubated for 2 h with the appropriate secondary Alexa Fluor conjugated antibodies. […]

Langerhans islets = experiment: Glucagon IHC staining of Langerhans islets (islet morphology) in STZ/HFD-32-fed mice; assay type: in vivo, mouse
Method: as §1
(§3) At the end of the experiment, the mice were sacrificed by CO2 inhalation and the livers and pancreases were removed. Livers were photographed and the lipid content was assessed. […]

ob/ob mice [2] = details: diabetic (ob/ob) mice and NAFLD affected mice; Pittala et al., Cells 2020; cited from earlier work
PDX1 = PDX1 IF co-staining in pancreas of STZ/HFD-32-fed mice; assay type: in vivo, mouse
Method: as §1, §3

ob/ob mice [3] = experiment: Ob/Ob diabetes mouse model: blood glucose, body weight, Langerhans islets; assay type: in vivo; details: 14 mg/kg intravenous three times a week
Method: Six week old male (C57BL/6) Ob/Ob (Jackson Laboratory, Bar Harbor, Me.) mice were treated with R-Tf-D-LP4 (14 mg/Kg) from week 6 to week 13 by intravenous administration of the R-Tf-D-LP4 peptide in 100 μl of Hank's balanced salts solution (HBSS) without calcium three times a week. A control group received 100 μl of 0.8% DMSO in HBSS buffer injected intravenously. The final blood DMSO concentration was 0.07% in both control and peptide-treated mice. Blood glucose levels were measured once a week. At the end of the experiment, the mice were sacrificed, and the pancreas was removed and fixed with formaldehyde, embedded in paraffin, sectioned, and subjected to immunefluorescent (IF). The experimental protocol used in the mouse model was approved by the Institutional Animal Care and Use Committee.
as §2
MIDI II, 3DHISTECH) with the same light intensity and exposure time. Non-specific control experiments were carried out using the same protocols but omitting incubation with primary antibodies. For IF staining, sections were incubated for 2 h with the appropriate secondary Alexa Fluor conjugated antibodies. Sections were washed with PBST, counter—stained with DAPI (0.07 μg/ml), washed with PBST, and mounted with mounting media. […]
STZ/HFD-32-fed mice at the end of study before sacrifice. In the case of the ob/ob mice, weekly blood samples were collected from the tail, and blood glucose levels were measured immediately using an Accu-Check Performa blood glucose meter.

STZ/HFD-32-fed mice [4] = details: 2019, cited from earlier work
Ki-67 = Ki-67 IF staining (proliferation) in pancreas of STZ/HFD-32-fed mice; assay type: in vivo, mouse; details: steatosis stage; compared to chow diet-fed and STZ/HFD-32-fed mice
Method: as §1, §3

3T3-L1 adipocytes = experiment: Oil Red O staining of intracellular lipids in adipocytes; assay type: cell-based, mouse; details: 10 μM peptide, 24 h
Method: 3T3-L1 mouse embryo fibroblasts were purchased from the American Type Culture Collection (ATCC Manassas, Va.) and maintained in a humidified atmosphere of 5% CO2, 95% air at 37° C. in Dulbecco's modified Eagle's growth medium (DMEM) with high glucose ([…]), supplemented with 10% fetal calf serum, and 1% penicillin-streptomycin. For R-Tf-D-LP4 peptide treatment, […] cells (6×10^5/ml at 70-80% confluence) were incubated with the R-Tf-D-LP4 peptide in 500 μl serum-free medium for 24 h at 37° C. and 5% CO2. The cells were then stained with Oil red O as described below.
3T3-L1 cells were washed with PBS, fixed with formaldehyde for 15 min, and then subjected to Oil Red O staining for 30 min at room temperature followed by staining with Hematoxylin. Microscope images were collected to visualize the red oil droplets in the cells. Finally, the cells were washed with H2O followed by three washes with 60% isopropanol with gentle rocking. The Oil Red O stain was extracted with 100% isopropanol for 5 min and the absorbance at 492 nm was measured and normalized to the same number of cells counted before stain extraction.

Glut-2 = Glut-2 IF staining of pancreatic sections of STZ/HFD-32-fed mice; assay type: in vivo, mouse; details: STZ/HFD-32-fed mice at steatosis
Method: as §1, §3

VDAC1 = VDAC1 IHC/IF staining of Langerhans islets of STZ/HFD-32-fed mice; assay type: in vivo, mouse
Method: Male C57BL/6 mice were purchased from Envigo (Jerusalem, Israel). In order to generate the diabetes-based steatosis-NASH mouse model, 2-day-old mice were subjected to a single, low dose subcutaneous injection of streptozotocin (STZ) (200 μg/mouse) and then were fed with the HFD-32 high fat diet starting at the end of week 4. The mice manifested steatosis at 6 weeks and NASH at 8 weeks. These mice are designated herein interchangeably as “NAFLD/diabetes mice model” and “STZ/HFD-32-fed mice”. Mice affected with steatosis were treated with R-Tf-D-LP4 (14 mg/kg) from week 6 to week 8, and mice affected with NASH from week 8 to week 10. The R-Tf-D-LP4 peptide at 14 mg/kg (in 100 μl of Hank's balanced salts solution (HBSS) without calcium) was administered intravenously three times a week. […]
as §3
The expression of VDAC1 was examined in the pancreas of STZ/HFD-32 diet-fed mice, representing NAFLD affected mice on a diabetic background with and without R-Tf-D-LP4 peptide treatment as compared to the levels in islets from mice fed with chow-diet (FIG. 5). Formaldehyde-fixed, paraffin-embedded pancreas sections were analyzed by IHC staining for VDAC1 using anti-VDAC1 specific antibodies. […]

In the case of `O=C(CC(CO)N1CCN(c2ccc(OC(F)(F)F)cc2)CC1)Nc1ccc(Cl)cc1` (stereo not drawn) [VBIT-4, N-(4-chlorophenyl)-4-hydroxy-3-(4-(4-(trifluoromethoxy)phenyl)piperazin-l-yl) butanamide], the glucose tolerance (db/db mice) is listed as “maintained normal glucose tolerance”, the hyperglycemia (db/db mice) is listed as “prevented hyperglycemia” and the insulin secretion (db/db mice) is listed as “stimulated insulin secretion”.
For “D-Lys-D-Trp-D-Thr-D-Trp-D-Lys-D-Asn-D-Ser-D-Asn-D-Gly-D-Ala-D-Thr-D-Trp-D-Ala-D-Leu-D-Asn-D-Val-D-Ala-D-Thr-D-Glu-D-Leu-D-Lys-D-Lys-D-Glu-D-Trp-D-Thr-D-Trp-D-Ser-His-Arg-Pro-Tyr-Ile-Ala-His [R-Tf-D-LP4]”, the “number of islets per mouse, Islet size, 1-50 nm” value (STZ/HFD-32-fed mice [1]; NASH) was 16, the “number of islets per mouse, Islet size, 51-100 nm” value (STZ/HFD-32-fed mice [1]; NASH) was 12 and the “number of islets per mouse, Islet size, 101-150 nm” value (STZ/HFD-32-fed mice [1]; NASH) was 4. For the same molecule, the “number of islets per mouse, Islet size, 151-300 nm” value (STZ/HFD-32-fed mice [1]; NASH) was 3, the “Average No. of islets per mouse” value (STZ/HFD-32-fed mice [1]; NASH, week 8 to 10) was 35 and the “Total No. of islets” value (STZ/HFD-32-fed mice [1]; NASH, week 8 to 10, n = 10) was 354 (n = 10). For the same molecule, the “size and number of Langerhans islets” value (STZ/HFD-32-fed mice [1]; STZ/HFD-32-fed mice, steatosis or NASH stage) was “both the size and the number of Langerhans islets were increased”, the blood glucose levels (STZ/HFD-32-fed mice [1]; STZ/HFD-32 mice model) was “reduced blood glucose levels” and the “insulin content within the islets” value (STZ/HFD-32-fed mice [1]; STZ/HFD-32 mice model) was “increased insulin content within the islets”. For the same molecule, the “number of islets per mouse, Islet size, 1-50 nm” value (STZ/HFD-32-fed mice [1]; Steatosis) was 16, the “number of islets per mouse, Islet size, 51-100 nm” value (STZ/HFD-32-fed mice [1]; Steatosis) was 8 and the “number of islets per mouse, Islet size, 101-150 nm” value (STZ/HFD-32-fed mice [1]; Steatosis) was 2. The “number of islets per mouse, Islet size, 151-300 nm” value (STZ/HFD-32-fed mice [1]; Steatosis) was 1, the “Average No. of islets per mouse” value (STZ/HFD-32-fed mice [1]; Steatosis, week 6 to 8) was 27 and the “Total No. of islets” value (STZ/HFD-32-fed mice [1]; Steatosis, week 6 to 8, n = 17) was 451 (n = 17). For the same molecule, the “further increase of the number of islets over chow diet level” value (STZ/HFD-32-fed mice [1]; mice affected with NASH) was 30%, the “number of the islets compared with chow diet-fed mice” value (STZ/HFD-32-fed mice [1]; mice with steatosis) was “to the level observed in mice fed with chow diet” and the “islet morphology (localization of glucagon-producing cells)” value (Langerhans islets; NASH stage) was “completely restored”. For the same molecule, the “islet morphology (localization of glucagon-producing cells)” value (Langerhans islets; steatosis stage) was “improved to some extent”, the blood glucose levels (ob/ob mice [2]) was “reduced blood glucose levels” and the PDX1 staining level (PDX1; co-staining PDX1 and glucagon, over the level in control chow-fed mice) was “highly increased”. For the same molecule, the PDX1 staining level (PDX1; co-staining PDX1 and insulin) was “showed a higher level of staining for PDX1”, the blood glucose levels (ob/ob mice [3]) was “reduced the levels of blood glucose” and the insulin production (ob/ob mice [3]) was “improved insulin production”. For the same molecule, the “number of Langerhans islets” value (ob/ob mice [3]; H&E and anti-insulin staining) was “increased the number of islets”, the “body weight (weekly average weight)” value (ob/ob mice [3]; followed for 7 weeks) was “no such effect was observed” and the “β-oxidation in the liver” value (STZ/HFD-32-fed mice [4]; STZ/HFD-32-fed mice, Pittala et al.) was “accelerated β-oxidation in the liver”. For the same molecule, the liver pathology (STZ/HFD-32-fed mice [4]; mouse model for NAFLD, WO 2017/037711, Pittala et al.) was “reverse liver pathology to a normal-like state”, the “increase in number of Ki-67 positive cells in the islet interior” value (Ki-67) was “about 8 fold” and the “increase in number of Ki-67 positive cells outside of the islets” value (Ki-67) was ~3 fold. The “decrease in the amount of lipid (extraction of Oil red O stain)” value (3T3-L1 adipocytes) was 90%, the “Glut-2 expression in islets” value (Glut-2) was “re-expressed” and the “VDAC1 staining level in the islets” value (VDAC1; IHC, 14 mg/kg) was “this level decreased”. The “islet morphology and size (IF co-staining VDAC1 and insulin)” value (VDAC1; steatosis stage) was “displayed a normal morphology and large islets”.
